# Test results from patent publication US20250042925A1, “Improved Compositions and Methods for Targeting Mitochondria in Cancer Cells” (The Medical College of Wisconsin, Inc., priority 2021, published 2025).
# “Also recorded” adds a separate entry of the source.
# How the values were obtained:
# [1] = system: pancreatic, breast, and colon cancers; conditions: cited from earlier work
# [2] = system: KPC1242 murine pancreatic cancer; assay: Tumor growth in KPC1242 engrafted mice; format: in vivo; conditions: 1 mg pCF3-MMe, 5 days on and 2 days off, from 17 days after engraftment
# Experimental: FIGS. 6A-6I show pCF3-MMe inhibits tumor growth with enhanced biosafety relative to MMe. C57BL/6J mice were treated with 1 mg MMe, 1 mg pCF3-MMe, 1 mg MMe, 250 μg MMe, 100 μg MMe, 50 μg MMe, or 25 μg MMe for 6 hours (FIG. 6A) or 5 days (FIG. 6D). Kaplan-Meier survival curve of mice treated for 6 hours (FIG. 6B) or 5 days (FIG. 5E), n=3-5. Numbers of mice surviving over time after a single injection (FIG. 6C) or 5 repeated doses (FIG. 6F). Significance was determined using a Mantel-Cox test (*, p<0.05; **, p<0.01). KPC1242 murine pancreatic cancer engrafted mice were treated with 1 mg pCF3-MMe or vehicle 5 days on and 2 days off (FIG. 6G). […] Tumor volume was measured ex vivo from vehicle and pCF3-MMe-treated mice (FIG. 6I). […] Significant differences were determined by Student's t-test (*, p<0.05).
# Given the strong safety shown from a single injection, further studies were conducted to determine if mice tolerated repeated injection using our published treatment schedule by injecting non-tumor-bearing mice daily for 5 consecutive days with doses ranging from as little as 25 μg/mouse to as much as 1 mg/mouse 20 (FIG. 6D). […] Taken together, trifluoromethylation of TPP^+ improves the reproducible detection, quantitative measurement, and safety profile of TPP^+-conjugated compounds while retaining potent anti-tumor effects in vivo. […]
# [3] = Quantitative 19F-NMR of compound persistence in tumor, blood and liver; format: in vivo, mice
# Experimental: To validate ^19F-NMR as a viable detection approach, the persistence of pCF3-MMe in tumors was analyzed. KPC1242 engrafted mice were administered 1 mg/mouse pCF3-MMe starting 12 days after implantation. […] We next designed a quantitative NMR approach to measure the in vivo persistence of pCF3-MMe. First, serial dilutions of known concentrations of pCF3-MMe were prepared, and the intensity of the NMR peaks at a set scan number (n=64) was used to create a standard curve. Next, a one-phase decay least-squares fit equation was generated to calculate the amount of pCF3-MMe at each time point using the standardized scan number.
# Cells (1×10^7 cells/10 cm dish) were allowed to adhere overnight and then treated with varying concentrations of mitochondria-targeted compounds. Compounds were extracted using multiple methods and optimized for detection and quantification: A) Cells or tumors were placed in a dry ice ethanol bath followed by 80% v/v MeOH in water. Cells were placed on a dry ice ethanol bath on an orbital shaker for 20 minutes, and then cells were collected and centrifuged at 10,000×g; B) Post-treatment cells were lifted with TrypLE (Gibco, Cat #11558856) and centrifuged, then compound was extracted from the cells or tumors with 9:1 CHCl3:H2O, CH2Cl2, or 1:1 MeCN:H2O. Following extraction, solvents were evaporated using a Biotage V-10 Touch (Uppsala, Sweden), and before NMR acquisition, samples were resuspended in an equal volume of DMSO-d6.
# ^19F 1D-NMR spectra were collected on a Bruker Avance-III 500 MHz NMR spectrometer equipped with a 1H&^19F/13C/15N-TCI cryoprobe. […] To evaluate pCF3-MMe concentrations in biological samples, a standard curve was generated using pCF3-MMe concentrations of 0.25, 0.50, 0.75, 1.0, 1.25, and 1.5 mg/mL, and the resulting peak intensities were analyzed by linear regression. […]
# All animal studies were approved by the Institutional Animal Care and Use Committees at the Medical College of Wisconsin. […] Tumors were excised, and volume (length×width×depth=mm^3) was measured post-mortem using calipers. […]
SMILES,efficacy compared to metformin [1],tumor size and volume [2],"detection in the blood and liver ([3]; 2 hours after injection, 1 mg)",detection in the blood and liver ([3]; 6 hours after injection),"levels within the tumors ([3]; 24 hours after injection, 1 mg/mouse)"
"N=C(N)NC(=N)NCCCCCCCCCC[P+](c1ccccc1)(c1ccccc1)c1ccccc1.[Br-] [MMe, 10-[(carbamimidamidomethanimidoyl)amino]decyl-triphenylphosphonium bromide, reference compound]",100-1000 fold,–,–,–,–
"N=C(N)NC(=N)NCCCCCCCCCC[P+](c1ccc(C(F)(F)F)cc1)(c1ccc(C(F)(F)F)cc1)c1ccc(C(F)(F)F)cc1.[Br-] [pCF3-MMe, (10-(3-carbamimidoylguanidino)decyl)tris(4-(trifluoromethyl)phenyl)phosphonium bromide]",–,significantly decreased tumor size and volume,undetectable; also recorded: not detected,barely detectable above the signal-to-noise ratio,measurable levels
